Test results reported in patent publication US20100035259A1, “BIOMARKERS AND METHODS FOR DETERMINING SENSITIVITY TO VASCULAR ENDOTHELIAL GROWTH FACTOR RECEPTOR-2 MODULATORS” (Bristol-Myers Squibb Company, priority 2007, published 2010).

How the values were obtained:
mouse stromal tissues = test: Transcriptional profiling of GEO xenograft tumors on mouse 430A arrays (genes in mouse stromal tissues); format: in vivo; conditions: for ESM1 level: after 2 hours treatment; for expression value of ESM1 in stromal tissue: treatment at 17 Days, in comparison with the control (FIG. 1)
Experimental: (§1) Tumors were propagated in nude mice as subcutaneous (sc) implants using human GEO colon tumor cell lines. Tumors were maintained in nude mice by serial passage. Treated animals were checked daily for treatment related toxicity/mortality. Each group of animals was weighed before the initiation of treatment (Wt1) and then again following the last treatment dose (Wt2). The difference in body weight (Wt2-Wt1) provided an overt measure of treatment-related toxicity. […] Tumor response was determined by measurement of tumors with a caliper twice a week, until the tumors reached a predetermined target size. Animals that were distributed to various treatment and control groups during the study were eventually sacrificed to obtain tumor and blood samples for genomic and protein analysis (Table 1).
(§2) Mouse GEO xenograft tumors, treated and non-treated, were surgically removed at appropriate time points and split into two halves. One half of the tumor was mixed in a vial of 10% formalin to be used for IHC and the other half was mixed in 1.0 ml of RNAlater™ RNA Stabilization Reagent (Ambion, Inc., Austin, Tex.) held at room temperature for 30-minutes then stored at −80° C. Total RNA was extracted from the tumor samples using the RNeasy Kit™ (Qiagen, Valencia Calif.). A least 1 μg total RNA with a 260/280 ratio >1.8 by spectrophotometry (DU640 UV, Beckman Coulter, Fullerton, Calif.) was required for transcriptional profiling. Briefly, the tumor samples were homogenized in a lysis-binding solution supplied by Qiagen. An equal volume of ethanol was mixed into each sample, the mixture was passed through the filter cartridges provided, and the rest of the extraction protocol was followed (Ambion). RNA yield and quality were assessed on a standard 1% agarose gel. […] RNA samples were stored at −80° C.
(§3) Transcriptional profiling was performed on the RNA obtained from the GEO xenograft tumor samples. The Affymetrix GeneChip system (Affymetrix, Santa Clara, Calif.) was used for hybridization and scanning of the human U133A and mouse 430A arrays. Generation of cRNA followed a standard T7 amplification protocol. Total RNA was reverse-transcribed with SuperScript II™ (Gibco, Carlsbad, Calif.) in the presence of T7-(dT)24 primer to generate first strand cDNA. A second-strand cDNA synthesis was performed in the presence of DNA Polymerase I, DNA ligase, and RNase H (Gibco). The resulting double-stranded cDNA was blunt-ended using T4 DNA polymerase. This double-stranded cDNA was then transcribed into cRNA in the presence of biotin-ribonucleotides using the BioArray High Yield RNA transcript labeling kit (Enzo Life Sciences, Farmingdale, N.Y.). The amplified, biotin-labeled cRNA was purified using Qiagen RNeasy™ columns (Qiagen Sciences), quantified and fragmented at 94° C. for 35 minutes in the presence of fragmentation buffer (1×). Fragmented cRNA was hybridized to the Affymetrix U113A and 430A arrays overnight at 42° C. The arrays were then placed in the fluidics stations for staining and washing as recommended by Affymetrix protocols. The chips were scanned and raw intensity values were generated for each probe on the arrays.
(§4) 20 HG-U133A2 chips were normalized by the RMA (Robust Multi-array Analysis) method as described by R. A. Irizarry et al., Nucleic Acids Res., February 15; 31(4):e15 (2003). The same normalization was done for the 20 Mouse430A2 chips.
(§5) Differentially expressed genes were defined as: (i) FDR (false discovery rate) q value less than 0.05 when comparing specific compound treatment at single time point to the control (no treatment) at 0 time point and (ii) fold change bigger than 2 (log2Foldchange>1 or <−1) when compared specific treatment to control.

[1] = system: human GEO colon tumor xenograft tumor tissues; test: Transcriptional profiling of GEO xenograft tumors on human U133A arrays (genes in tumor tissues); format: in vivo
Experimental: as §1, §2, §3, §4, §5

human GEO colon tumor = test: Tumor growth in GEO colon cancer model (caliper measurement); format: in vivo, nude mice; conditions: compared to bevacizumab
Experimental: as §1

VEGFR-2 = VEGFR-2 (Homo sapiens, UniProt P35968); test: Inhibition of VEGFR-2; format: biochemical
Sequence of VEGFR-2 (P35968 20-1356, species assumed): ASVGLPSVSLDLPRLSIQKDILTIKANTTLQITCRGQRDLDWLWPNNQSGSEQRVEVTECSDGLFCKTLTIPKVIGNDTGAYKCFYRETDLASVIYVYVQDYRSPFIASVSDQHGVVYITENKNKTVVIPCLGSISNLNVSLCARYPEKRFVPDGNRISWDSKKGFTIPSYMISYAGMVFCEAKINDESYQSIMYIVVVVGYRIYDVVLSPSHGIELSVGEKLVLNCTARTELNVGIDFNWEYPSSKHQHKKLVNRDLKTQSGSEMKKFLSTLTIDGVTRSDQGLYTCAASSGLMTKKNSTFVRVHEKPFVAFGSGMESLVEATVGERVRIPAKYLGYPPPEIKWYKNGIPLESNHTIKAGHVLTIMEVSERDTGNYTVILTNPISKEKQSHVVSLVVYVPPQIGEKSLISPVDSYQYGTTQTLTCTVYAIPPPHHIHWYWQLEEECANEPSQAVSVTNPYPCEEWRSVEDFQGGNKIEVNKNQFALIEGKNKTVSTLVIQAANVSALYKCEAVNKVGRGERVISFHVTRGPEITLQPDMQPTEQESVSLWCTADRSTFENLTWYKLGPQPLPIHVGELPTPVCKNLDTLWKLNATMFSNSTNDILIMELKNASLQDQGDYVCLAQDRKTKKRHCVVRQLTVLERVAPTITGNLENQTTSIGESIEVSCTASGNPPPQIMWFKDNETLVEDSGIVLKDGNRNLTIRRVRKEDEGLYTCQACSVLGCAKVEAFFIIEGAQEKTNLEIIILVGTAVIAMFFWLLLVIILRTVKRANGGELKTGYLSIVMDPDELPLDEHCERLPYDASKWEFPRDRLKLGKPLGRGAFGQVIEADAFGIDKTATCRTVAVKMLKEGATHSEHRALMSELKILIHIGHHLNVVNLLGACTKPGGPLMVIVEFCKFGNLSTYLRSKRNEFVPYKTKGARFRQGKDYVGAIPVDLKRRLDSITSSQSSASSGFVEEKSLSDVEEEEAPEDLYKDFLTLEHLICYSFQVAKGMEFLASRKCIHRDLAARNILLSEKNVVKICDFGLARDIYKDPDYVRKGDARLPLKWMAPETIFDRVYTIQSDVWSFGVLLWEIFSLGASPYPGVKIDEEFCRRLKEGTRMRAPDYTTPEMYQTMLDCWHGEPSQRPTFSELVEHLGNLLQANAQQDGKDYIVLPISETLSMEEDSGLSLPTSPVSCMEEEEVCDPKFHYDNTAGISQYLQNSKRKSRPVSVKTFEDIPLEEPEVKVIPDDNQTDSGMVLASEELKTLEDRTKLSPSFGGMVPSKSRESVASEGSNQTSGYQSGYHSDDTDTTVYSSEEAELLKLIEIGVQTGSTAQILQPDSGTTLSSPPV

FGFR-1 = FGFR-1 (Homo sapiens, UniProt P11362); test: Inhibition of FGFR-1; format: biochemical
Sequence of FGFR-1 (P11362 22-822, species assumed): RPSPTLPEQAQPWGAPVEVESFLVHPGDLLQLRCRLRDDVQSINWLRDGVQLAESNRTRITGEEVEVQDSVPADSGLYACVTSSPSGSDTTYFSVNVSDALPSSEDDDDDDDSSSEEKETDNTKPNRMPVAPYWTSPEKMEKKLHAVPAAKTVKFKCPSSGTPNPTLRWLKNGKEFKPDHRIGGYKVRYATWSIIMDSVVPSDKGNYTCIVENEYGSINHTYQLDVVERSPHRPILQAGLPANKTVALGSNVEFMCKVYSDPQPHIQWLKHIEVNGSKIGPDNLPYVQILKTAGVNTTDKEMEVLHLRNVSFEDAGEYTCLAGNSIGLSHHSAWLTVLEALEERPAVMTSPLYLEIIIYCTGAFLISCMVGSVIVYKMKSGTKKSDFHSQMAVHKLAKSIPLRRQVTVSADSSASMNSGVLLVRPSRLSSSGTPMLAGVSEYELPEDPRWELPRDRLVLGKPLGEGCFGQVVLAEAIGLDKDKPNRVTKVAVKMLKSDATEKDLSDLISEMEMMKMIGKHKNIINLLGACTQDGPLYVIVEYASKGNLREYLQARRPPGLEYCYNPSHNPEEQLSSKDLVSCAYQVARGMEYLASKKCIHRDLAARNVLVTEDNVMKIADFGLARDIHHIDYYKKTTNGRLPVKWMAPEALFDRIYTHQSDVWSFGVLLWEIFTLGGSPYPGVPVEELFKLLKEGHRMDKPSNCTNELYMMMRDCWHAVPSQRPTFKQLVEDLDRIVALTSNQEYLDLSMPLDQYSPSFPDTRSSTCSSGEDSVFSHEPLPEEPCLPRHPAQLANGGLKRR

FGFR-2 = FGFR-2 (Homo sapiens, UniProt P21802); test: Inhibition of FGFR-2; format: biochemical
Sequence of FGFR-2 (P21802 22-821, species assumed): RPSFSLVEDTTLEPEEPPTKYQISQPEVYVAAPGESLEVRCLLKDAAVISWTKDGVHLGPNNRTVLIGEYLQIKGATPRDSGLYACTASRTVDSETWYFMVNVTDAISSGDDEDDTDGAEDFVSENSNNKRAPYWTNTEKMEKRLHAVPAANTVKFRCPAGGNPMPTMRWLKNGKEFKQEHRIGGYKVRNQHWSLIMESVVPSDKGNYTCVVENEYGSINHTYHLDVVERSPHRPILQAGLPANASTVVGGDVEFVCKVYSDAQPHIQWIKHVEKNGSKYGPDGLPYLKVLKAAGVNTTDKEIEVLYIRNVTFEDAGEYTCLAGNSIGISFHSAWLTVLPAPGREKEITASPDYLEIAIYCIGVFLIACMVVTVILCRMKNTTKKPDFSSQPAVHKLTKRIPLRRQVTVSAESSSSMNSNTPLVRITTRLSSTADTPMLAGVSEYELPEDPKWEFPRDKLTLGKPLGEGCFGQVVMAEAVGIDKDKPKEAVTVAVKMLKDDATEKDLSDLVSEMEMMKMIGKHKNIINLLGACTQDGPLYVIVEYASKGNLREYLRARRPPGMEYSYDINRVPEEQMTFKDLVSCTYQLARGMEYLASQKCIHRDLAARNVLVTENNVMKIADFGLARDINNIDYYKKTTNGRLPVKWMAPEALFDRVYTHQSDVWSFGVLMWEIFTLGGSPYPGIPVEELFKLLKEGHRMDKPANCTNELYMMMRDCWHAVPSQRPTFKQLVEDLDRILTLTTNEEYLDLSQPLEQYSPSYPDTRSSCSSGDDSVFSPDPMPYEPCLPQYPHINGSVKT

[2] = mouse stroma tissue, 17 days time point
[3] = tumor xenografts, after 17 days
[4] = xenograft tumor tissues, 17 days (FIG. 4)

For `Cc1cc2c(F)c(Oc3ncnn4cc(OC[C@@H](C)OC(=O)[C@H](C)N)c(C)c34)ccc2[nH]1` [compound 1, [(1R), 2S]-2-Aminopropionic acid 2-[4-(4-fluoro-2-methyl-1H-indol-5-yloxy)-5-methylpyrrolo[2,1-f][1,2,4]triazin-6-yloxy]-1-methylethyl ester], which ESM1 level (mouse stromal tissues) is on record?
Its ESM1 level is “decreasing trend”.

What about the “expression level of S100A8” value (mouse stromal tissues; [2]) of the same molecule?
The value was “up-regulated”.

What about the “expression level of S100A9” value (mouse stromal tissues; [2]) of the same molecule?
The value was “up-regulated”.

What about the “expression value of ESM1 in stromal tissue” value (mouse stromal tissues) of the same molecule?
The value was “significantly decreases”.

What about the CD14 expression (mouse stromal tissues; upon treatment, 17 days) of the same molecule?
Its CD14 expression is “elevated”.

And the CEACAM1 expression ([1]; 3 probe sets (206576_s_at, 211889_x_at, 209498_at), treatment at 17 days)?
Its CEACAM1 expression is “significant increase”.

What about the “expression level of RAGE, up-regulated” value ([1]; human xenograft tissue, 17 days, FDR q=0.002) of the same molecule?
Its value is 1.9 fold.

And the AKAP7 inhibited ([1]; treatment at 17 days, FDR q<0.008 (FIG. 4))?
Its AKAP7 inhibited is 3.5 fold.

What about the EMP1 up-regulated ([1]; tumor tissue, 17 Days, significant FDR q values (FIG. 3)) of the same molecule?
The EMP1 up-regulated was 3.9 fold.

And the FGF-8 levels [1, 3]?
Its FGF-8 levels is “elevated”.

And the FGF-18 levels [1, 3]?
The FGF-18 levels was “elevated”.

And the FGF-22 levels [1, 3]?
Its FGF-22 levels is “elevated”.

What about the FGFR-2 levels [1, 3] of the same molecule?
Its FGFR-2 levels is “elevated”.

And the FGF-2 levels ([1]; tumor xenografts, after 17 days, low expression)?
The FGF-2 levels was “didn't change much”.

What about the “Expression of Collagen 18” value [1, 4] of the same molecule?
Its value is “up-regulated”.

And the VEGF expression [1, 4]?
The VEGF expression was “up-regulated”.

What about the VEGFB expression [1, 4] of the same molecule?
The VEGFB expression was “up-regulated”.

What about the “ability to inhibit tumor growth” value (human GEO colon tumor) of the same molecule?
The value was “increase affect on the ability to inhibit tumor growth when compared to bevacizumab”.

And the “inhibition of VEGFR-2” value (VEGFR-2)?
The value was “potent inhibition”.

What about the “inhibition of FGFR-1” value (FGFR-1) of the same molecule?
Its value is “inhibition”.

And the “inhibition of FGFR-2” value (FGFR-2)?
The value was “inhibition”.

With “bevacizumab: AVASTIN (bevacizumab), indirectly inhibits the VEGFR-2 signaling pathway by preventing VEGF ligand binding [reference compound]” as the molecule, how does the ESM1 level (mouse stromal tissues) read?
Its ESM1 level is “decreasing trend”.

And the “expression value of ESM1 in stromal tissue” value (mouse stromal tissues)?
The value was “significantly decreases”.
